Measurements: paper PMC7796107, “Efficient Separation of Phytochemicals from Muehlenbeckia volcanica (Benth.) Endl. by Polarity-Stepwise Elution Counter-Current Chromatography and Their Antioxidant, Antiglycation, and Aldose Reductase Inhibition Potentials” (Molecules, 2021)
Marks after values point to notes of the source that are not given here.

Experiments:
[1] = biological target: fructose-mediated bovine serum albumin (BSA) glycation (Bos taurus, UniProt P02769); assay: Antiglycation assay, fructose-mediated BSA glycation model
Method: The antiglycation assay was carried out using a fructose-mediated BSA glycation model as reported previously [43] with minor modifications. […] Then, 200 µL of the reaction solution from each sample was pipetted to black 96-well plates to determine the fluorescent AGEs using a microplate fluorescence reader (BIOTEK-FLx800, Winooski, VT, USA) at excitation and emission wavelengths of 360 ± 20 nm and 460 ± 20 nm, respectively. Aminoguanidine [25], a synthetic antiglycation agent, was used as a positive control with final concentrations of 200 µg/mL to 800 µg/mL or 1 mM to 4 mM.

[2] = test system: streptozotocin-induced diabetic cats; conditions: cited from earlier work
[3] = biological target: T1, aldose reductase (AR) (Rattus norvegicus, UniProt P07943); assay: Aldose reductase (AR) inhibition assay, rat lens homogenate; type: biochemical, Sprague–Dawley rats
T1 construct: centrifuged at 10,000× g for 30 min at 4 °C (Centrifuge 5417R, Eppendorf, Germany) to obtain AR homogenate (in the supernatant); from tissue; host or cells: eye lenses of Sprague–Dawley rats
Method: For the extraction of AR, the rat eye lenses were grounded in a precooled mortar (−70 °C) and extracted using 0.1 M PBS (pH 6.2; about 0.5 mL of PBS per two frozen rat lenses).
A 96-well plate-based AR inhibition assay was used in this study, which was modified from a previous method. In principle, the rate of the absorbance decrease of NADPH at 340 nm (OD340 nm) was used for evaluation of the AR inhibitory activity. […] Then, as soon as 20 μL of the substrate (DL-glyceraldehyde dimer, 25 mM in 0.1 M PBS, pH 7.0) was added, the absorbance of the reaction solution at 340 nm was measured for 6 min using an Epoch microplate spectrophotometer (BioTek Instruments, Highland Park, IL, USA). […] The samples were first prepared at high concentrations in DMSO or in a mixture of DMSO and water and then diluted using water shortly before the experiment. The concentration of DMSO was kept within 0.2% (v/v) in the reaction system. […] The AR inhibition ratio (%) for the samples was calculated using Equation (4):(4) %inhibition=1−Slopes−Slopeb/Slopec−Slopeb×100%, where Slopec, Slopes, and Slopeb are the slopes obtained from the OD340 nm versus the reaction time (min) dotted lines of the control group (without sample), sample group (with enzyme and sample), and blank group (without enzyme or sample), respectively. |Slope| is the absolute value of Slope.

[4] = ABTS radical scavenging assay; type: biochemical; conditions: Trolox equivalent antioxidant capacity
Method: (§1) The antioxidant activities of the 70% methanol extract of M. volcanica and the separated compounds were evaluated using DPPH, ABTS, and ORAC assays. The results were expressed as Trolox equivalent antioxidant capacity (TEAC, µg Trolox/µg extract or µM Trolox/µM compound), which were calculated with the equations obtained from the calibration curves of Trolox standards (final concentrations) versus their DPPH and ABTS radical inhibition (%) and the net AUC value (ORAC assay).
The ABTS radical scavenging assay was carried out using the same EL800 microplate reader. Briefly, 0.2 mM of ABTS diammonium salt was prepared in 3.5 mM of potassium persulfate aqueous solution, and the mixture solution was then diluted 10 times using distilled water. The diluted solution was allowed to stand for 24 h in the dark at room temperature (about 25 °C) to produce ABTS radical cations (ABTS^+). For reaction, 290 μL of ABTS^+ solution was mixed with 10 μL of sample (dissolved in methanol, extract 62.5–125 µg/mL; compounds 20–250 µM) in a 96-well plate, and the mixture solution was allowed to react for 10 min at 25 °C in the dark. Then, the absorbance was measured at 750 nm. […] Results are expressed in µg Trolox equivalents/µg extract or µM Trolox equivalents/µM compound. The ABTS radical scavenging activity (%) is calculated using Equation (1) where Asample is the absorbance of ABTS^+ solution with a sample, Ablank1 is the absorbance of the test sample without ABTS^+, Acontrol is the absorbance of ABTS^+ solution without a sample, Ablank2 is the absorbance of buffer, without ABTS^+ or a sample.

[5] = DPPH radical scavenging assay; type: biochemical; conditions: Trolox equivalent antioxidant capacity
Method: as §1
The DPPH radical scavenging assay was carried out using an EL800 microplate reader (Bio-Tek Instruments, Winooski, VT, USA). Briefly, 180 μL of freshly prepared DPPH solution (0.32 mM in methanol) was mixed with 20 μL of sample (dissolved in methanol, extract 250 µg/mL; compounds 62.5–1000 µM) in a 96-well plate. The mixture was incubated for 20 min in the dark at 25 °C, and then, the absorbance was measured at […]. […] Results are expressed in µg Trolox equivalents/µg extract or µM Trolox equivalents/µM compound. The DPPH radical scavenging activity (%) is calculated using Equation (1):(1) %inhibition=1−Asample−Ablank1/Acontrol−Ablank2×100%, where Asample is the absorbance of DPPH solution with a sample, Ablank1 is the absorbance of the test sample without DPPH, Acontrol is the absorbance of DPPH solution without a sample, Ablank2 is the absorbance of methanol, without DPPH or a sample.

[6] = cited from earlier work
[7] = test system: diabetic rats; conditions: cited from earlier work
[8] = test system: streptozotocin-induced diabetic rats; conditions: cited from earlier work
[9] = ORAC (oxygen radical absorbance capacity) assay; type: biochemical; conditions: Trolox equivalent antioxidant capacity, ORAC assay (peroxyl radicals)
Method: as §1
The ORAC assay was carried out using a Fluoroskan Ascent FL microplate reader (Thermo, Waltham, MA, USA) using the method described previously with minor modifications. Antioxidants can scavenge the peroxyl radicals generated by AAPH, which prevent the degradation of the fluorescein and, therefore, prevent the loss of the fluorescence of fluorescein. Briefly, fluorescein sodium salt (117 nM) and AAPH (40 mM) were freshly prepared in 0.1 M phosphate-buffered saline (PBS, pH 7.4). For reaction, 120 µL of fluorescein sodium salt (117 nM) and 20 µL of sample (dissolved in methanol, extract 10–20 µg/mL; compounds 10–160 µM) were mixed in a black 96-well plate and pre-incubated for 15 min at 37 °C. Next, 60 µL of AAPH (40 mM) was added, and the fluorescence was measured 100 times (interval 1 min) at excitation and emission wavelengths of 485 nm and 538 nm, respectively, by the microplate reader maintained at 37 °C. […] The relative ORAC values are expressed in µg Trolox equivalents/µg extract or µM Trolox equivalents/µM compound.

[10] = test system: human erythrocytes; set-up: method as in earlier work; conditions: high glucose conditions; cited from earlier work
[11] = read-out: Antiglycation activity, inhibition (%)

Chain of fructose-mediated bovine serum albumin (BSA) glycation (P02769 25-607): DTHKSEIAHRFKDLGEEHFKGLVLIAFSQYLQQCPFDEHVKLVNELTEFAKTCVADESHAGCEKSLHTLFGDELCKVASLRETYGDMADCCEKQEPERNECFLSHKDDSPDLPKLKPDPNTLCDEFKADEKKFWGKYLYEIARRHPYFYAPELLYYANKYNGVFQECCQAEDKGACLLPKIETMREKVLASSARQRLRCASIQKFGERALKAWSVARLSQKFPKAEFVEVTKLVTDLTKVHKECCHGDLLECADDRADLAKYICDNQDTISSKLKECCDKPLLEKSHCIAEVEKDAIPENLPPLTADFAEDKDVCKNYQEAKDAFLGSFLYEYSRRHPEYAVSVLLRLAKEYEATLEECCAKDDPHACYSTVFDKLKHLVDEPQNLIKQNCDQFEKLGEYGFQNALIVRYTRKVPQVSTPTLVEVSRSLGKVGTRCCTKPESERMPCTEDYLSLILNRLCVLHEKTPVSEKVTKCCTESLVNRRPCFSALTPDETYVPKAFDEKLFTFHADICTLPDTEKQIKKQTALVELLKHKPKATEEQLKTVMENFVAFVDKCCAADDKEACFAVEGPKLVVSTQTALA

With C[C@@H]1O[C@@H](OC[C@H]2O[C@@H](Oc3c(-c4ccc(O)c(O)c4)oc4cc(O)cc(O)c4c3=O)[C@H](O)[C@@H](O)[C@@H]2O)[C@H](O)[C@H](O)[C@H]1O [Rutin (8), rutin] the IC50 [1] was 20.1 ± 0.23 µM, the inhibition at 12.5 µM [1, 11] was 30.8 ± 1.1% and the inhibition at 25 µM [1, 11] was 61.7 ± 2.49%. The inhibition at 50 µM [1, 11] was 81.82 ± 0.65%, the inhibition at 100 µM [1, 11] was 91.51 ± 0.4% and the Impaired cardiac function [2] was “partially reverse the impaired cardiac function”. The inhibition at 3.125 µM ([3]; 3.125 µM, read-out: AR inhibition activity, inhibition (%)) was 46.4 ± 1.21%, the inhibition at 6.25 µM ([3]; 6.25 µM, read-out: AR inhibition activity, inhibition (%)) was 62.79 ± 0.3% and the inhibition at 12.5 µM ([3]; 12.5 µM, read-out: AR inhibition activity, inhibition (%)) was 75.2 ± 0.9%. The inhibition at 25 µM ([3]; 25 µM, read-out: AR inhibition activity, inhibition (%)) was 84.5 ± 1.51%, the IC50 ([3]; rat lens AR homogenate) was 3.51 ± 0.12 µM and the “TEAC, ABTS” value [4] was 1.12 ± 0.04 ^d µM trolox/µM Compound. The “TEAC, DPPH” value [5] was 0.90 ± 0.09 ^e µM trolox/µM Compound, the “Inhibition of AGEs by trapping methylglyoxal” value [6] was “inhibit AGEs by trapping methylglyoxal” and the “Progression of lens opacification” value [7] was “delay the progression of lens opacification”. For the same molecule, the “Effect on oxidative stress” value [8] was “ameliorate the oxidative stress”, the “TEAC, ORAC” value [9] was 5.77 ± 0.08 ^b µM trolox/µM Compound and the “Accumulation of sorbitol in human erythrocytes” value [10] was “suppress the accumulation of sorbitol”.
